{"source": "patent US10344035B2", "about": "“Salt of quinolone compound, polymorphs thereof, preparation method therefor, composition, and applications” (SHANGHAI PHARMACEUTICALS HOLDING CO., LTD., priority 2015, dated 2019)", "key": {"[1]": {"assay": "Safety (animal weight and death) in MHCC97H model", "type": "in vivo", "settings": "MHCC97H model, 0.05, 0.5 and 5 mg/kg once a day, 21 days", "method": "(§1) BALB/c nude mice were subcutaneously inoculated with MHCC97H cells to develop human hepatocellular carcinoma subcutaneously transplanted tumor model. The experiment was divided into groups including crystal form A of SPH1772 ditartrate (0.05 mg/kg, 0.5 mg/kg and 5 mg/kg), positive control INC280 hydrochloride (5 mg/kg), and Vehicle control group, 10 mice in each group, intragastric administration once a day, lasting 21 days. The efficacy was according to the relative tumor inhibition rate (TGI) and tumor growth delay time, the safety was evaluated according to animal weight and death."}, "[2]": {"test_system": "human hepatoma MHCC97H cell line", "assay": "Anti-tumor effect in MHCC97H xenograft model", "type": "in vivo, BALB/c nude mice", "settings": "for relative tumor volume (x ± S) / tumor volume (x ± S) / T/C / TGI (relative tumor inhibition rate): 25th day after dosing; for TGI (relative tumor inhibition rate): from relative tumor volume; for Tumor weight (x ± s) / TGI (tumor weight): 26th day after dosing; for TGI (tumor weight): from tumor weight", "method": "as §1\nBALB/c nude mice, female, 7 to 9 weeks old (the age when mice were inoculated with tumor cells), weight 19.5 to 23.9 g, 75 animals. BALB/c nude mice were purchased from Shanghai Lingchang Biotechnology Co., Ltd., animal certificate number: 2013001816956. Rearing environment: SPF level.\nMHCC97H (Zhongshan Hospital subsidiary to Fudan University) was cultured in DMEM containing 10% fetal bovine serum. MHCC97H cells were collected during exponential growth phase, the cells in PBS was re-suspended to a suitable concentration for subcutaneous tumor inoculation in mice.\n0.2 mL 1×10^7 MHCC97H cells re-suspended in PBS and Matrigel (1:1) was subcutaneously inoculated to the right side of 75 mice. When the mean tumor volume reached 157 mm^3, mice were randomly grouped based on tumor volume. The formula for calculating the tumor volume was that long diameter×short diameter^2/2.\nRelative tumor inhibition rate TGI (%): TGI=1−T/C (%). T/C % is the relative tumor proliferation rate, which is the percentage of the relative tumor volume or tumor weight in the treatment group to that of the control group at a certain time. T and C are respectively the relative tumor volume (RTV) or tumor weight (TW) of the treatment group and control group at a certain time.\nThe formula was as follows: T/C %=TRTV/CRTV*100% (TRTV: mean RTV in the treatment group; CRTV: mean RTV in the control group; RTV=Vt/V0, V0 was the tumor volume of the animal when grouped, and Vt was the tumor volume of the animal after treatment). Or T/C %=TTW/CTW×100% (TTW: mean tumor weight in the treatment group at the end of the experiment; CTW: mean tumor weight in the control group at the end of experiment).\n1.5 h and 24 h after the last dose, blood and tumor were collected, the tumor was weighted, and photographs were taken.\nAll experimental results were expressed as mean tumor volume±SEM (mean standard error). Statistical analysis between different groups was performed on the best point of drug treatment (usually after the last dosing). The independent sample T test method was used to evaluate whether there was significant difference between the relative tumor volume and tumor weight in the treatment group to that of the control group. All data was analyzed by SPSS 18.0. p<0.05 was considered having significant differences."}, "[3]": {"assay": "in vivo", "settings": "SD, rat, in vivo, po, 20 umol/kg", "method": "All stock solutions of the test compound were sonicated and heated to become clarified and formulated to a 25 mM solution with DMSO.\nAll samples were dosed at 20 μmol/kg.\nThe blood sample was centrifuged at 8000 rpm for 5 min, the plasma was collected in a centrifuge tube and stored at −20° C. for use.\nTreatment of the plasma sample: the proteins in 50 μL plasma sample were precipitated with 200 μL acetonitrile containing internal standard (Propranolol (PRO), 2.5 ng/mL). Vortexed for 10 min, centrifuged at 6000 g for 10 min, the supernatant was taken and 5-fold diluted with the mobile phase, and the supernatant was injected into a 96-well plate for analysis.\nflow rate: 0.3 mL/min; injection volume: 2 μL; column temperature 45° C. The gradient elution procedure was: […]\nThe ion source was an electrospray ionization source (Turbo Ionspray, ESI); the electrospray voltage was 5500V; the temperature was 500° C.; pressure of ion source gas 1 (N2) was 50 psi; pressure of ion source gas 2 (N2) was 50 psi; pressure of curtain gas (N2) 20 psi; pressure of collision gas (CAD) was Medium; scan time was 100 ms; positive ion mode detection; scan mode was multiple reaction monitoring (MRM), ion reaction and collision energy (CE) for quantitative analysis, declustering potential (DP) are shown in the following table: […]"}, "[4]": {"molecular_target": "c-Met kinase (Homo sapiens, UniProt P08581)", "sequence (P08581 956-1390 limits assumed)": "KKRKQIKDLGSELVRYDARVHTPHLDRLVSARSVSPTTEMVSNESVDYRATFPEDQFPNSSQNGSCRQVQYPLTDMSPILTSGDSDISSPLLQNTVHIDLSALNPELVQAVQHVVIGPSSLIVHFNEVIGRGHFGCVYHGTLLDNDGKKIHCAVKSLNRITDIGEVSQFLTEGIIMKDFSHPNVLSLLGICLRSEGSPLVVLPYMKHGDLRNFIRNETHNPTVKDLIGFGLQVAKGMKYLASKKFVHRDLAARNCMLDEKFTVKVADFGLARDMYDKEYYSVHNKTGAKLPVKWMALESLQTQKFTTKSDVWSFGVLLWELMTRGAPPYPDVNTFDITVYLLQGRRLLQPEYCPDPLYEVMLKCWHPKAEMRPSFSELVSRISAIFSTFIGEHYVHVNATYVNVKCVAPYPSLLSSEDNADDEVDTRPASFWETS", "assay": "c-Met tyrosine kinase inhibition, HTRF kinase assay", "settings": "ATP concentration at Km", "protocol": "The in vitro kinase assay uses Homogeneous Time-Resolved Fluorescence (HTRF) technology to screen the test compounds on the c-Met kinase at an ATP concentration of Km (wherein, Km represents the Michaelis constant, the unit is mol/L, which is the concentration of ATP at which the enzymatic reaction rate is half of the maximum reaction rate).\nAll samples were formulated to a 10^−2M stock solution using DMSO and stored in small quantities at −80° C. for use.\n1, Preparing a 1× reaction buffer (the reaction buffer purchased was high-concentration, dilution was required when used, diluted to the final concentration required for the experiment, which was referred to as 1× reaction buffer.)\npreparing 1× reaction buffer suitable for each kinase using 5× Enzymatic buffer in HTRF kinEASE-TK kit.\n2, Preparing and transferring 5× compound (e.g. the final concentration of compound required for the experiment was 1 μm, then the concentration of the sample was first formulated to 5 μm, referred to as 5× compound.) […]"}, "[5]": {"settings": "0.05 mg/kg intragastric once a day"}, "[6]": {"settings": "0.5 mg/kg intragastric once a day"}, "[7]": {"settings": "5 mg/kg intragastric once a day"}}, "note": "“And” between values parts separate entries of the source, which are not always exact repeats. Equal entries are not always repeated.", "data": [{"smiles": "Cn1cc(-c2cnc3ccc(Cn4nnc5ncc(-c6cnn(C)c6)nc54)cc3c2)cn1", "note": "[crystal form A of SPH1772 ditartrate]", "values": [{"measurement": "death, drug toxicity and tolerability during the treatment period", "setting": "[1]", "result": "no animal died, no significant drug toxicity was exhibit, and they were well tolerated"}, {"measurement": "relative tumor volume (x ± S)", "setting": "[2]; [5]", "result": "3.03 ± 0.56"}, {"measurement": "tumor volume (x ± S)", "setting": "[2]; [5]", "result": "469 mm^3 and 469 ± 85 mm^3"}, {"measurement": "T/C", "setting": "[2]; 0.05 mg/kg", "result": 26, "unit": "%"}, {"measurement": "TGI (relative tumor inhibition rate)", "setting": "[2]; 0.05 mg/kg", "result": 74, "unit": "%"}, {"measurement": "Tumor weight (x ± s)", "setting": "[2]; 0.05 mg/kg", "result": "493 ± 71", "unit": "mg"}, {"measurement": "TGI (tumor weight)", "setting": "[2]; 0.05 mg/kg", "result": 69, "unit": "%"}, {"measurement": "relative tumor volume (x ± S)", "setting": "[2]; [6]", "result": "0.39 ± 0.03"}, {"measurement": "tumor volume (x ± S)", "setting": "[2]; [6]", "result": "60 mm^3 and 60 ± 5 mm^3"}, {"measurement": "T/C", "setting": "[2]; 0.5 mg/kg", "result": 3, "unit": "%"}, {"measurement": "TGI (relative tumor inhibition rate)", "setting": "[2]; 0.5 mg/kg", "result": 97, "unit": "%"}, {"measurement": "Tumor weight (x ± s)", "setting": "[2]; 0.5 mg/kg", "result": "48 ± 2", "unit": "mg"}, {"measurement": "TGI (tumor weight)", "setting": "[2]; 0.5 mg/kg", "result": 97, "unit": "%"}, {"measurement": "relative tumor volume (x ± S)", "setting": "[2]; [7]", "result": "0.14 ± 0.02"}, {"measurement": "tumor volume (x ± S)", "setting": "[2]; [7]", "result": "22 mm^3 and 22 ± 3 mm^3"}, {"measurement": "T/C", "setting": "[2]; 5 mg/kg", "result": 1, "unit": "%"}, {"measurement": "TGI (relative tumor inhibition rate)", "setting": "[2]; 5 mg/kg", "result": 99, "unit": "%"}, {"measurement": "Tumor weight (x ± s)", "setting": "[2]; 5 mg/kg", "result": "31 ± 3", "unit": "mg"}, {"measurement": "TGI (tumor weight)", "setting": "[2]; 5 mg/kg", "result": 98, "unit": "%"}, {"measurement": "AUCextra", "setting": "[3]", "result": 210.83, "unit": "µM·min"}, {"measurement": "AUCtot", "setting": "[3]", "result": 9012.96, "unit": "µM·min"}, {"measurement": "Clearance", "setting": "[3]", "result": 2, "unit": "mL/min/kg"}, {"measurement": "Vz", "setting": "[3]", "result": 0.760, "unit": "L/kg"}, {"measurement": "Cmax", "setting": "[3]; Cmax", "result": 16, "unit": "µM"}, {"measurement": "MRT", "setting": "[3]; MRT", "result": 7.89, "unit": "h"}, {"measurement": "Tmax", "setting": "[3]; Tmax", "result": 3.33, "unit": "h"}, {"measurement": "IC50", "setting": "[4]", "result": 0.33, "unit": "nM"}]}]}
